According to US10538534B2 (Colorado State University Research Foundation, priority 2015, dated 2020):
Read-outs that look alike come from different tables or passages of the source.

Experiments:
Solubility in solvents = assay: Solubility in solvents
Description: Trityl thiol was dissolved in 0.6 mL of DCM and cooled to 0° C. TFA (30 μL) and iPr3SiH (2.0 μL, 10 μmol) were added to the solution at 0° C. The bath was removed and the reaction was allowed to stir at room temperature for 1 h. Solvent was removed by argon flow and the residue 14 is taken crude for biological evaluation.

[1] = system: NOTCH1 mutated T-ALL cells (ALL/SIL); assay: ATP-based cell viability assay (CellTiter-Glo) in T-ALL cells; details: ALL/SIL, 72, 144, 216 hours, 10 μM to 0.078 μM, FIGS. 14-16
Description: (§1) To test the hypothesis that largazole folate-conjugated small molecules target T-ALL, dose-ranging ATP content assays were performed. […] Next, an ATP-based assay (CellTiter-Glo, Promega®) was used to calculate the half-maximal inhibitory concentration (IC50) of cell viability. Graphs were plotted as a fraction of cells alive (y-axis) using Prism GraphPad 6 software and drug doses expressed as Log [μM] (x-axis).

[2] = system: NOTCH1 mutated T-ALL cells (DND41); assay: as above; details: DND41, 72, 144, 216 hours, 10 μM to 0.078 μM, FIGS. 11-13
Description: as §1

Class I HDAC = assay: HDAC biochemical selectivity profiling; details: FIG. 1B, versus free Largazole-thiol
HDACs1, 2 & 3 = assay: Affinity precipitation from HeLa Nuclear Extract with streptavidin beads, immunoblot; type: binding; details: 1 μM in 200 μL HeLa Nuclear Extract, 16 hr incubation, FIG. 1C
Description: 1 μM Largazole-Btn (54) in 200 μL of HeLa Nuclear Extract […] of streptavidin beads added after 16 hr incubation with compound.

tumor = assay: In vivo tumor growth inhibition study
Source text: Although the distribution effect of these compounds is similar, there is a notable difference in drug exposure of ˜30 percent for the peptide isostere.

HDAC2 = HDAC2 (Homo sapiens, UniProt Q92769); assay: Biochemical profiling for HDACi activity, miniaturized assay platform (HDAC1-9)
Chain of HDAC2 (Q92769 whole entry): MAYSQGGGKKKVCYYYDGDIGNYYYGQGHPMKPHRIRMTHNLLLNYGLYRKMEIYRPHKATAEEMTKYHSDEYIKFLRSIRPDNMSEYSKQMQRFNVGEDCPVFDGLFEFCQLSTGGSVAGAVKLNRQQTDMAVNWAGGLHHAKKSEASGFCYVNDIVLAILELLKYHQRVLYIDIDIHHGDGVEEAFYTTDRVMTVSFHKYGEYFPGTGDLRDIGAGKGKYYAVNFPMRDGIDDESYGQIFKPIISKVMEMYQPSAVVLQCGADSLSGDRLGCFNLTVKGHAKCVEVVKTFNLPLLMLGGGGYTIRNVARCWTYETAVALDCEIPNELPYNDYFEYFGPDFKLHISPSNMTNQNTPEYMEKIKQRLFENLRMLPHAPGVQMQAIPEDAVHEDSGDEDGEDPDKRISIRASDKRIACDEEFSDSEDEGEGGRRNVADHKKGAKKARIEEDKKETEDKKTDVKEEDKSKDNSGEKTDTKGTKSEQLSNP

HDAC8 = target: T1, HDAC8 (Homo sapiens, UniProt Q9BY41); assay: as above; details: compared with IC50 for HDACs 1-3
T1 sequence (Q9BY41 1-377): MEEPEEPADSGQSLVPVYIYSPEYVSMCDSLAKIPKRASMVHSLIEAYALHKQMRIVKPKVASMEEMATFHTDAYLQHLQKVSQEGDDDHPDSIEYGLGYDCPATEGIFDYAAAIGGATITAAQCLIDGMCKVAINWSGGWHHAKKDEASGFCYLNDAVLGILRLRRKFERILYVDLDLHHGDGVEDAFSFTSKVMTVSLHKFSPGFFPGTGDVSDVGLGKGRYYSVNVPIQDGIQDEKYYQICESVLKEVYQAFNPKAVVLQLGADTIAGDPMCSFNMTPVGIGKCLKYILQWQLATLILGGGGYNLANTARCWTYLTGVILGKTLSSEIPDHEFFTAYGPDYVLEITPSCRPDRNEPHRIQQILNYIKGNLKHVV

HDAC1 = HDAC1 (Homo sapiens, UniProt Q13547); assay: as above
Chain of HDAC1 (Q13547 whole entry): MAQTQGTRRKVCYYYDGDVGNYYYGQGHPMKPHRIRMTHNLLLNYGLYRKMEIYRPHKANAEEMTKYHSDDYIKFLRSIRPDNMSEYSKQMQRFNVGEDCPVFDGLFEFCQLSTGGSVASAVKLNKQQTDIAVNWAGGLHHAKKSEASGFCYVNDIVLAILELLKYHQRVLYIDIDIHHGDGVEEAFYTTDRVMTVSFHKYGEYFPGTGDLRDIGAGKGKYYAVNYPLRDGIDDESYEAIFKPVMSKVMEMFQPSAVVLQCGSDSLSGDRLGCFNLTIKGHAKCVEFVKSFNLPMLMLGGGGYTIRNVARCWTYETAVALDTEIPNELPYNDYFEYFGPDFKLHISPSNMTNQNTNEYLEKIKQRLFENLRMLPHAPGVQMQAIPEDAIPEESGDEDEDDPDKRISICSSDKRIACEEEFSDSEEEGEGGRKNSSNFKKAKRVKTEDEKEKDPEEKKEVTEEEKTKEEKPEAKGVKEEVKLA

In the case of `CC(C)C1NC(=O)[C@]2(C)CSC(=N2)c2nc(sc2-c2ccc(CNC(=O)CC[C@H](NC(=O)c3ccc(NCc4cnc5nc(N)[nH]c(=O)c5n4)cc3)C(=O)O)cc2)CNC(=O)CC(/C=C/CCS)NC1=O` (some centres unmarked), the “solubility (solvents)” value (Solubility in solvents; FIG. 10 legend) is reported as “only soluble in DMSO”.

For `CCCCCCCC(=O)SCC/C=C/C1CC(=O)NCc2nc(c(-c3ccc(CNC(=O)CC[C@H](NC(=O)c4ccc(NCc5cnc6nc(N)[nH]c(=O)c6n5)cc4)C(=O)O)cc3)s2)C2=N[C@@](C)(CS2)C(=O)NC(C(C)C)C(=O)N1` (some centres unmarked), the “solubility (solvents)” value (Solubility in solvents) was “soluble in mixture of CH2Cl2-MeOH, or DMSO”.

In the case of `CCCCCCCC(=O)SCC/C=C/C1CC(=O)NCc2nc(c(-c3ccc(COC(=O)CC[C@H](NC(=O)c4ccc(NCc5cnc6nc(N)[nH]c(=O)c6n5)cc4)C(=O)O)cc3)s2)C2=N[C@@](C)(CS2)C(=O)NC(C(C)C)C(=O)N1` (some centres unmarked), the “solubility (solvents)” value (Solubility in solvents; FIG. 10 legend) is reported as “soluble in MeOH, CHCl3, DMSO”, the cell viability [1] is reported as “loss of cellular viability” and the cell viability [2] is reported as “loss of cellular viability”.

In the case of `CC(C)[C@@H]1NC(=O)[C@]2(C)CSC(=N2)c2nc(sc2-c2ccc(CNC(=O)CC[C@H](NC(=O)c3ccc(NCc4cnc5nc(N)[nH]c(=O)c5n4)cc3)C(=O)O)cc2)CNC(=O)CC(/C=C/CCS)NC1=O` (some centres unmarked) [Compound 14], the “solubility in organic solvent” value (Solubility in solvents; crude product) is reported as “very poor” and the solubility in water (Solubility in solvents; crude product) is reported as “not soluble in water”.

With `CC(C)[C@@H]1NC(=O)[C@]2(C)CSC(=N2)c2nc(sc2-c2ccc(CNC(=O)CCCCCNC(=O)CCCCCNC(=O)CCCCC3SC[C@@H]4NC(=O)N[C@H]34)cc2)CNC(=O)CC(/C=C/CCS)OC1=O` (some centres unmarked) [Largazole-Biotin] the biochemical selectivity (Class I HDAC) was “compares favorably to free Largazole-thiol” and the “affinity precipitation of HDACs by immunoblot” value (HDACs1, 2 & 3) was “affinity precipitation of HDACs1, 2 & 3”.

With `CCCCCCCC(=O)SCC/C=C/[C@@H]1CC(=O)NCc2nc(cs2)C2=N[C@@](C)(CS2)C(=O)N[C@@H](C(C)C)C(=O)O1` [Largazole] the tumor growth inhibition (tumor) was 34%, the IC50 (HDAC2) was less than 20 nM and the “IC50 HDAC8” value (HDAC8) was “much higher”. The IC50 (HDAC1) was less than 20 nM.

For largazole thiol, the tumor growth inhibition (tumor) was 44%.
